Our source for the half-life and EC50 values is US9982017B2, “Synthetic apelin mimetics for the treatment of heart failure” (priority 2012, dated 2018).

SMILES strings stand for the structures. *1 amine or outer side, *2 acyl side, *3 side chain or, on linkers, in order; H or OH if unused. Where a SMILES comes first, the peptide text is derived from it. Bridges are numbered along the chain shown (N, C = ends). [ ]: non-standard residue; d: D form. The star is where a group is joined. Palmitoyl = CCCCCCCCCCCCCCCC(=O)*; Cha = N[C@@H](CC1CCCCC1)C(=O)O; pGlu = O=C1CC[C@@H](C(=O)O)N1; CH2COCH2 = O=C(C[*:1])C[*:2]; NHPhenethyl = c1ccc(CCN*)cc1; Nle = CCCC[C@H](N)C(=O)O; AEEA = NCCOCCOCC(=O)O; Inp = O=C(O)C1CCNCC1

The nature of data set [1]: Plasma Stability Assay (LC-MS). It is filed as in vitro ADME. As to conditions: male, Sprague-Dawley, heparinized rat plasma, 37° C., Table 3, read-out: Plasma stability t½. The protocol:
• Working solution: 1 mg/mL test article is prepared in Milli-Q water • Extraction solution: Methanol:Acetonitrile:Water (1:1:1) with 0.1% Formic Acid and 400 ng/mL Glyburide. • Plasma: Male Sprague-Dawley rat plasma (with sodium heparin), purchased from Bioreclamation LLC (Liverpool, N.Y.). • Whole blood: Male Sprague Dawley whole blood (with sodium heparin), purchased from Bioreclamation LLC (Liverpool, N.Y.) • Lung homogenate: Male rat Sprague Dawley lung was purchased from Bioreclamation LLC (Liverpool, N.Y.). The lung was homogenized using polytron homogenizer after addition of 5× volume of 1×PBS. The homogenate was centrifuged at 9000 rpm for 10 min at 4° C. The supernatant was centrifuged again at 3000 rpm for 30 min to make a clear supernatant. Protein concentration was determined using a commercial kit (Pierce, Thermo Scientific). Sample Preparation Procedure:
Test article was prepared in one of the following biological matrices: heparinized rat plasma, heparinized rat whole blood or lung homogenate. The plasma and whole blood sample was prepared at 5000 ng/mL by adding 5 uL of 1 mg/mL Working solution to 995 uL of rat plasma or whole blood. Lung homogenate samples were prepared by diluting lung homogenate to 1 mg/ml protein concentration with phosphate buffered saline (PBS), followed by addition of 5 uL Working solution to 995 uL diluted lung homogenate. The samples were incubated at 37° C. with gentle shaking (65˜75 rpm) in a water bath incubator. At times 0 min, 5 min, 15 min, 30 min, 60 min, 120 and 240 min, 25 uL aliquots of incubation samples were transferred to 96-well plate and immediately protein precipitated using 150 uL of Extraction solution. After completion of incubation experiment, the sample plate was centrifuged at 4000 rpm at 4° C. for 10 minutes. Afterwards, a pipetting device (Tecan Temo) was used to tranfer the supernatants to another plate and add 50 uL of water to all samples. The plate was vortexed prior to LC-MS analysis. • LC-MS Analysis of Stability Samples • HPLC: Agilent 1290 HPLC with autosampler • Column: MAC-MOD ACE C18, 3 μm, 30 mm×2.1 mm i.d. • Mobile phase A: 0.1% Formic acid in acetonitrile • Mobile phase B: 0.1% Formic acid in water Gradient Program: […]

The nature of another data set: in vitro. To be noted: rat, not told.
The target of a further data set is T1, hAPJ (Homo sapiens, UniProt P35414).
T1 sequence (P35414 1-380): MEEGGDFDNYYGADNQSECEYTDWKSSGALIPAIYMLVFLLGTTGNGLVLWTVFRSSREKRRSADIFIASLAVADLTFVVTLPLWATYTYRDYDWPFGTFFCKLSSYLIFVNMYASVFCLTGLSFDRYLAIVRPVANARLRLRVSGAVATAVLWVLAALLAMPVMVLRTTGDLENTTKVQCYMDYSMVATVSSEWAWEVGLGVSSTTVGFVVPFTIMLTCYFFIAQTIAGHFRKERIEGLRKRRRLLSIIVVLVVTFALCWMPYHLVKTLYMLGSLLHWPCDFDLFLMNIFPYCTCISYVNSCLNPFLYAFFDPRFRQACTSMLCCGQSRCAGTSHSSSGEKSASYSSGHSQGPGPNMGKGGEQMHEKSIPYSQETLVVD
As to the kind of experiment: hAPJ Calcium Flux Assay. The data set is classed as cell-based. As to conditions: Chem-5 APJ stable cells, FLIPR Calcium 4 dye; read-out: hAPJ Ca^2+ Flux EC50.

A short description of data set [2]: Surrogate Activity-Based Plasma Stability Assay (calcium flux EC50 after incubation with 5% rat plasma). To be noted: not told.
Procedure: (§1) The slope of this line, k, was determined by linear regression (Microsoft Excel). • Stability half-life was then calculated by the formula, t ½=0.693÷k Surrogate Activity-Based Plasma Stability Assay:
(§2) The calcium flux protocol described above was followed, with the following changes. The peptides were also incubated with 5% rat plasma (Bioreclamation # [sequence]-M, Na Heparin-treated). Readings were taken at time points t0 and t24 hrs, after incubation in a 37° C. tissue culture incubator. Peptide plasma half-life in minutes was estimated by calculating the following:
2) Calculate slope of value above and
Setting [3] is: Surrogate Activity based Plasma stability t½.
Where [4] appears, read: Surrogate activity-based Plasma stability t½.

Procedure for hAPJ: Chem-5 APJ stable cells (Millipore # HTS068C) were plated in 384-well format with 10,000 cells/well in 25 ul growth media, then grown 24 hours in a 37° C. tissue culture incubator. One hour before the assay, 25 ul/well FLIPR Calcium 4 dye (Molecular Devices R8142) with 2.5 mM probenecid was added, and cells were incubated one hour in a 37° C. tissue culture incubator. Peptides were solubilized in HBSS, HEPES & 0.1% BSA buffer, and serially-diluted 10-fold, from 50 uM to 5 pM, in triplicate. FLIPR Tetra was used to add peptide to the cells with dye (1:5, for final peptide concentrations ranging from 10 uM to 1 pM). FLIPR dye inside the cells emitted fluorescence after binding to calcium, while fluorescence from outside the cells was masked. Fluorescence was measured using 470-495 excitation and 515-575 emission wavelengths on the FLIPR Tetra. Readings were done for 3 minutes total, beginning 10 seconds before the peptide addition. Maximum-minimum values were calculated and plotted for each peptide concentration, and Graph Pad prism software was used to calculate EC50 values at the curve inflection points, for calcium flux stimulation by peptides.
Procedure for in vitro: as §1, §2
2) Calculate slope of value above and

As for `CCCC[C@@H]1NC(=O)[C@@H]2CCCN2C(=O)CNC(=O)[C@H](CCCCN)NC(=O)[C@H](Cc2cnc[nH]2)NC(=O)[C@@H](NC(=O)[C@H](CC(C)C)NC(=O)[C@H](CCCNC(=N)N)NC(=O)[C@@H]2CCCN2C(=O)[C@H](CCCNC(=N)N)NC(=O)[C@@H]2CCC(=O)N2)CSSC[C@@H](C(=O)N[C@@H](Cc2ccccc2)C(=O)O)NC1=O` [Example 8, (S)-2-((3S,6R,11R,14S,17S,25aS)-14-((1H-imidazol-5-yl)methyl)-17-(4-aminobutyl)-3-butyl-11-((S)-2-((S)-5-guanidino-2-((S)-1-((S)-5-guanidino-2-((S)-5-oxopyrrolidine-2-carboxamido)pentanoyl)pyrrolidine-2-carboxamido)pentanamido)-4-methylpentanamido)-1,4,12,15,18,21-hexaoxodocosahydro-1H-pyrrolo[2,1-j][1,2,5,8,11,14,17,20]dithiahexaazacyclotricosine-6-carboxamido)-3-phenylpropanoic acid] ([pGlu]RPRLCHKGP[Nle]CF-OH; disulfide 6-12), the half-life at 5000 ng/mL in data set [1] came out at 2.72 h. For the same compound, the half-life in “in vitro” (setting [3]) and in the data set “in vitro” (setting [4]) was 6.78 h throughout.
In the case of `CCCC[C@@H]1NC(=O)[C@@H]2CCCN2C(=O)CNC(=O)[C@H](CCCCN)NC(=O)[C@H](Cc2c[nH]cn2)NC(=O)[C@@H](NC(=O)[C@H](CC(C)C)NC(=O)[C@H](CCCNC(=N)N)NC(=O)[C@@H]2CCCN2C(=O)[C@H](CCCNC(=N)N)NC(=O)[C@@H]2CCC(=O)N2)CSSC[C@@H](C(=O)NCCc2ccccc2)NC1=O` [Example 12, pE-R-P-R-L-C-H-K-G-P-Nle-C-Phenethylamine] ([pGlu]RPRLCHKGP[Nle]C-NHPhenethyl; disulfide 6-12), in data set [1], the half-life at 5000 ng/mL was found to be 0.898 h. Also, the half-life in the data set “in vitro” (setting [3]) came out at 1.6 h; in “in vitro” (setting [4]), 1.56 h.
On to `CCCC[C@@H]1NC(=O)[C@@H]2CCCN2C(=O)CNC(=O)[C@H](CCCCN)NC(=O)[C@H](Cc2c[nH]cn2)NC(=O)[C@@H](NC(=O)[C@H](CC(C)C)NC(=O)[C@H](CCCNC(=N)N)NC(=O)[C@@H]2CCCN2C(=O)[C@H](CCCNC(=N)N)NC(=O)[C@@H]2CCC(=O)N2)CSSC[C@@H](C(=O)N[C@H](Cc2ccccc2)C(=O)O)NC1=O` [Example 13, pE-R-P-R-L-C-H-K-G-P-Nle-C-f-OH] ([pGlu]RPRLCHKGP[Nle]C[dF]-OH; disulfide 6-12), for which, in data set [1], the half-life at 5000 ng/mL came out at 3.05 h. Also, the half-life in “in vitro” (setting [3]) and in the data set “in vitro” (setting [4]) was 4.73 h in each case.
`N=C(N)NCCC[C@H](NC(=O)[C@@H]1CCCN1C(=O)[C@H](CCCNC(=N)N)NC(=O)[C@@H]1CCC(=O)N1)C(=O)N[C@@H](CC1CCCCC1)C(=O)N[C@H]1CSSC[C@@H](C(=O)N[C@@H](Cc2ccccc2)C(=O)O)NC(=O)[C@H](CC2CCCCC2)NC(=O)[C@@H]2CCCN2C(=O)CNC(=O)[C@H](CCCCN)NC(=O)[C@H](Cc2c[nH]cn2)NC1=O` [Example 14, pE-R-P-R-Cha-C-H-K-G-P-Cha-C-F-OH] ([pGlu]RPR[Cha]CHKGP[Cha]CF-OH; disulfide 6-12): the half-life at 5000 ng/mL in data set [1] amounted to 1.05 h. For the same compound, the half-life in “in vitro” (setting [3]) and in the data set “in vitro” (setting [4]) was 1.42 h each time.
Consider `CCCC[C@@H]1NC(=O)[C@@H]2CCCN2C(=O)CNC(=O)[C@H](CCCCN)NC(=O)[C@H](Cc2c[nH]cn2)NC(=O)[C@@H](NC(=O)[C@H](CC(C)C)NC(=O)[C@H](CCCNC(=N)N)NC(=O)[C@@H]2CCCN2C(=O)[C@@H](N)CCCNC(=N)N)CSSC[C@@H](C(=O)N[C@@H](Cc2ccccc2)C(=O)O)NC1=O` [Example 16, H-R-P-R-L-C-H-K-G-P-Nle-C-F-OH] (H-RPRLCHKGP[Nle]CF-OH; disulfide 5-11), for which the half-life at 5000 ng/mL in data set [1] turned out to be 0.17 h. Besides, the half-life in “in vitro” (setting [3]) and in “in vitro” (setting [4]) was 0.223 h throughout.
For `CCCC[C@@H]1NC(=O)[C@@H]2CCCN2C(=O)CNC(=O)[C@H](CCCCN)NC(=O)[C@H](Cc2c[nH]cn2)NC(=O)[C@@H](NC(=O)[C@H](CC(C)C)NC(=O)[C@H](CCCNC(=N)N)NC(=O)[C@@H]2CCCN2C(=O)[C@H](CCCNC(=N)N)NC(=O)[C@@H](N)CCCNC(=N)N)CSSC[C@@H](C(=O)N[C@@H](Cc2ccccc2)C(=O)O)NC1=O` [Example 17, H-R-R-P-R-L-C-H-K-G-P-Nle-C-F-OH] (H-RRPRLCHKGP[Nle]CF-OH; disulfide 6-12), the half-life at 5000 ng/mL in data set [1] was found to be 0.0383 h. Moreover, the half-life in the data set “in vitro” (setting [3]) and in “in vitro” (setting [4]) was 0.235 h throughout.
For `CCCC[C@@H]1NC(=O)[C@@H]2CCCN2C(=O)CNC(=O)[C@H](CCCCN)NC(=O)[C@H](Cc2c[nH]cn2)NC(=O)[C@@H](NC(=O)[C@H](CC(C)C)NC(=O)[C@H](CCCNC(=N)N)NC(=O)[C@@H]2CCCN2C(=O)[C@H](CCCNC(=N)N)NC(=O)C2CCNCC2)CSSC[C@@H](C(=O)N[C@@H](Cc2ccccc2)C(=O)O)NC1=O` [Example 18, H-Isn-R-P-R-L-C-H-K-G-P-Nle-C-F-OH] (H-[Inp]RPRLCHKGP[Nle]CF-OH; disulfide 6-12), the half-life at 5000 ng/mL in data set [1] is 3.67 h. The half-life in the data set “in vitro” (setting [3]) and in the data set “in vitro” (setting [4]) was 4.13 h in each case.
Regarding `CCCCCCCCCCCCCCCC(=O)NCCOCCOCC(=O)N[C@@H](CCC(N)=O)C(=O)N[C@@H](CCCNC(=N)N)C(=O)N1CCC[C@H]1C(=O)N[C@@H](CCCNC(=N)N)C(=O)N[C@@H](CC(C)C)C(=O)N[C@H]1CSSC[C@@H](C(=O)N[C@@H](Cc2ccccc2)C(=O)O)NC(=O)[C@H](CCCC)NC(=O)[C@@H]2CCCN2C(=O)CNC(=O)[C@H](CCCCN)NC(=O)[C@H](Cc2c[nH]cn2)NC1=O` [Example 24, Palmitoyl-O2Oc-Q-R-P-R-L-C-H-K-G-P-Nle-C-F-OH] ({Palmitoyl-AEEA}-QRPRLCHKGP[Nle]CF-OH; disulfide 6-12), at hAPJ, the EC50 is 32.7 nM. In the data set “in vitro” (setting [4]), this compound gave a half-life of 5.06 h.
As for `CCCC[C@@H]1NC(=O)[C@@H]2CCCN2C(=O)CNC(=O)[C@H](CCCCN)NC(=O)[C@@H]2CSSC[C@H](NC(=O)[C@@H]3CCCN3C(=O)[C@H](CCCNC(=N)N)NC(=O)[C@@H]3CCC(=O)N3)C(=O)N[C@@H](CC(C)C)C(=O)N[C@@H](CSSC[C@@H](C(=O)N[C@@H](Cc3ccccc3)C(=O)O)NC1=O)C(=O)N2` [Example 28, pE-R-P-C-L-C-C-K-G-P-Nle-C-F-OH] ([pGlu]RPCLCCKGP[Nle]CF-OH; disulfide 4-7, 6-12), the half-life in data set [2] was determined as 7.34 h.
With `CCCC[C@@H]1NC(=O)[C@@H]2CCCN2C(=O)CNC(=O)[C@H](CCCCN)NC(=O)[C@@H]2CSSC[C@H](NC(=O)[C@H](CCCNC(=N)N)NC(=O)[C@@H]3CCC(=O)N3)C(=O)N[C@@H](CCCNC(=N)N)C(=O)N[C@@H](CC(C)C)C(=O)N[C@@H](CSSC[C@@H](C(=O)N[C@@H](Cc3ccccc3)C(=O)O)NC1=O)C(=O)N2` [Example 29, pE-R-C-R-L-C-C-K-G-P-Nle-C-F-OH] ([pGlu]RCRLCCKGP[Nle]CF-OH; disulfide 3-7, 6-12), in data set [2], the half-life turned out to be 3.61 h.
Still for that read-out and setting: for `CCCC[C@@H]1NC(=O)[C@@H]2CCCN2C(=O)CNC(=O)[C@H](CCCCN)NC(=O)[C@H](Cc2cnc[nH]2)NC(=O)[C@@H](NC(=O)[C@H](CC(C)C)NC(=O)[C@H](CCCNC(=N)N)NC(=O)[C@@H]2CCCN2C(=O)[C@H](CCCNC(=N)N)NC(=O)[C@@H]2CCC(=O)N2)CSCC(=O)CSC[C@@H](C(=O)N[C@@H](Cc2ccccc2)C(=O)O)NC1=O` [Example 64, (S)-2-((3S,6R,14R,17S,20S,28aS)-17-((1H-imidazol-5-yl)methyl)-20-(4-aminobutyl)-3-butyl-14-((S)-2-((S)-5-guanidino-2-((S)-1-((S)-5-guanidino-2-((S)-5-oxopyrrolidine-2-carboxamido)pentanoyl)pyrrolidine-2-carboxamido)pentanamido)-4-methylpentanamido)-1,4,10,15,18,21,24-heptaoxohexacosahydropyrrolo[2,1-i][1,23,4,7,10,13,16,19]dithiahexaazacyclohexacosine-6-carboxamido)-3-phenylpropanoic acid] ([pGlu]RPRLCHKGP[Nle]CF-OH; linker 6-12 via CH2COCH2) the value was 7.58 h.
